In the supplement of paper PMC10307832:

How the values were obtained:
Experiment in all cases: relative viability (nuclei count vs DMSO), 5 days (fraction); higher = more cells survive
PAC-1 + Olaparib = compound: C=CCc1cccc(/C=N/NC(=O)CN2CCN(Cc3ccccc3)CC2)c1O [PAC-1] + O=C(c1cc(Cc2n[nH]c(=O)c3ccccc23)ccc1F)N1CCN(C(=O)C2CC2)CC1 [Olaparib] (partner 8 µM)
Method in brief: (§1)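 Values are medians from duplicate plates. Each reflects relative viability, defined as the nuclei count of treated wells over that of vehicle wells. Lung cancer cell lines in 1536-well plates were pin-tool dosed one day after seeding with one drug alone or with a fixed anchor-drug dose plus five library-drug doses (not always all listed) in √10 steps, then fixed, stained and imaged at 4× after 5 days.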

BMX-IN-1 + Linsitinib = compound: C=CC(=O)Nc1cc(-n2c(=O)ccc3cnc4ccc(-c5ccc(NS(C)(=O)=O)cc5)cc4c32)ccc1C [BMX-IN-1] + C[C@]1(O)C[C@@H](c2nc(-c3ccc4ccc(-c5ccccc5)nc4c3)c3c(N)nccn32)C1 [Linsitinib] (partner 1 µM)
Method in brief: as §1

Ibrutinib + Vorinostat = compound: C=CC(=O)N1CCC[C@@H](n2nc(-c3ccc(Oc4ccccc4)cc3)c3c(N)ncnc32)C1 [Ibrutinib] + O=C(CCCCCCC(=O)Nc1ccccc1)NO [Vorinostat] (partner 1 µM)
Method in brief: as §1

Ibrutinib + Crizotinib = compound: C=CC(=O)N1CCC[C@@H](n2nc(-c3ccc(Oc4ccccc4)cc3)c3c(N)ncnc32)C1 [Ibrutinib] + C[C@@H](Oc1cc(-c2cnn(C3CCNCC3)c2)cnc1N)c1c(Cl)ccc(F)c1Cl [Crizotinib] (partner 1 µM)
Method in brief: as §1

Cell Line	relative viability (PAC-1 + Olaparib; first compound 0.02 µM)	relative viability (PAC-1 + Olaparib; first compound 0.06325 µM)	relative viability (PAC-1 + Olaparib; first compound 0.2 µM)	relative viability (PAC-1 + Olaparib; first compound 2 µM)	relative viability (BMX-IN-1 + Linsitinib; first compound 0.02 µM)	relative viability (BMX-IN-1 + Linsitinib; first compound 0.2 µM)	relative viability (BMX-IN-1 + Linsitinib; first compound 0.6325 µM)	relative viability (BMX-IN-1 + Linsitinib; first compound 2 µM)	relative viability (Ibrutinib + Vorinostat; first compound 0.005 µM)	relative viability (Ibrutinib + Vorinostat; first compound 0.01581 µM)	relative viability (Ibrutinib + Vorinostat; first compound 0.05 µM)	relative viability (Ibrutinib + Vorinostat; first compound 0.1581 µM)	relative viability (Ibrutinib + Vorinostat; first compound 0.5 µM)	relative viability (Ibrutinib + Crizotinib; first compound 0.005 µM)	relative viability (Ibrutinib + Crizotinib; first compound 0.01581 µM)	relative viability (Ibrutinib + Crizotinib; first compound 0.05 µM)	relative viability (Ibrutinib + Crizotinib; first compound 0.1581 µM)	relative viability (Ibrutinib + Crizotinib; first compound 0.5 µM)
201T	0.817	0.859	0.857	0.818	1.13	1.02	1.04	1.01	0.94	0.982	0.969	0.883	0.889	1.03	1.02	1.03	1.04	1.04
A549	0.344	0.353	0.285	0.477	0.627	0.973	0.808	0.552						0.814	0.649	0.639	0.708	0.661
A-427	0.786	0.776	0.666	0.711	1.19	1.09	1.14	1.12	0.883	0.875	0.887		0.867	0.89	0.87	1.03	0.875	0.832
ABC-1	0.781	0.668	0.848	0.741	0.993	0.807	0.775	0.764	0.795	1.05			1.63	1.21	1.03	1.57	1.56	1.03
BEN	1.14	1.05	0.885	0.872	1.08	1.13	0.995	0.942	0.513	0.609	0.599	0.538	0.501	0.952	0.962	0.803	0.67	0.943
CAL-12T	0.719	0.701	0.72	0.695	0.849	0.811	0.932	1.01	0.617	0.623	0.464	0.841	0.621		0.589	0.582	0.718	0.301
COR-L23	0.308	0.334		0.379	1.62	1.11	0.994	1.01	0.326	0.51	0.522	0.477	0.566	0.707	0.641	0.693	0.644	0.653
COR-L 105	0.753	0.723	0.631	0.789	0.801	0.875	1.01	0.877	0.709	0.659	0.526	0.833	0.388	0.654	0.846	0.472	0.9	0.235
Calu-6	0.546	0.585		0.61	1.05	0.984	0.998	1.03						0.911	0.576	0.802	0.723	0.872
ChaGo-K-1	0.419	0.412	0.416	0.404					0.752	0.766	0.688	0.708	0.75	1.18	1.05	1.16		1.06
